The target of assay [1] is Human Full Length PARG (Homo sapiens (Human), UniProt Q86W56). Kind of assay: PARG enzyme assay (TR-FRET). The assay is classed as biochemical. For orientation: In TR-FRET formats the signal depends on donor and acceptor labels being close together.
Assay [2] has as its system PARG in HeLa cell line. Briefly: PARG cell assay (PAR chain immunofluorescence after MMS). The assay is classed as cell-based. The settings on record: HeLa cells. In a few lines:
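HeLa cells were dosed with compound for 1 h, then given MMS at 50 μg/mL final for a further hour. Cells were methanol-fixed, permeabilised and stained overnight at 4° C with anti-PAR monoclonal antibody. Retained nuclear PAR chains, detected by indirect immunofluorescence, indicate PARG inhibition.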

The mark [3] stands for this setting: Homo sapiens, MMS treatment, read-out: PARG Cell IC50.
[4] abbreviates: read-out: PARG Biochem IC50 Geomean.
Where [5] appears, read: Homo sapiens, MMS 50 μg/mL, read-out: PARG Cell IC50 Geomean.
The mark [6] stands for this setting: MMS 50 μg/mL, read-out: PARG Cell IC50 Geomean.
Where [7] appears, read: MMS treatment, read-out: PARG Cell IC50.

Structures are written as SMILES. Where two headings read alike, the source gives them in different places.

Sequence of Human Full Length PARG (Q86W56 whole entry): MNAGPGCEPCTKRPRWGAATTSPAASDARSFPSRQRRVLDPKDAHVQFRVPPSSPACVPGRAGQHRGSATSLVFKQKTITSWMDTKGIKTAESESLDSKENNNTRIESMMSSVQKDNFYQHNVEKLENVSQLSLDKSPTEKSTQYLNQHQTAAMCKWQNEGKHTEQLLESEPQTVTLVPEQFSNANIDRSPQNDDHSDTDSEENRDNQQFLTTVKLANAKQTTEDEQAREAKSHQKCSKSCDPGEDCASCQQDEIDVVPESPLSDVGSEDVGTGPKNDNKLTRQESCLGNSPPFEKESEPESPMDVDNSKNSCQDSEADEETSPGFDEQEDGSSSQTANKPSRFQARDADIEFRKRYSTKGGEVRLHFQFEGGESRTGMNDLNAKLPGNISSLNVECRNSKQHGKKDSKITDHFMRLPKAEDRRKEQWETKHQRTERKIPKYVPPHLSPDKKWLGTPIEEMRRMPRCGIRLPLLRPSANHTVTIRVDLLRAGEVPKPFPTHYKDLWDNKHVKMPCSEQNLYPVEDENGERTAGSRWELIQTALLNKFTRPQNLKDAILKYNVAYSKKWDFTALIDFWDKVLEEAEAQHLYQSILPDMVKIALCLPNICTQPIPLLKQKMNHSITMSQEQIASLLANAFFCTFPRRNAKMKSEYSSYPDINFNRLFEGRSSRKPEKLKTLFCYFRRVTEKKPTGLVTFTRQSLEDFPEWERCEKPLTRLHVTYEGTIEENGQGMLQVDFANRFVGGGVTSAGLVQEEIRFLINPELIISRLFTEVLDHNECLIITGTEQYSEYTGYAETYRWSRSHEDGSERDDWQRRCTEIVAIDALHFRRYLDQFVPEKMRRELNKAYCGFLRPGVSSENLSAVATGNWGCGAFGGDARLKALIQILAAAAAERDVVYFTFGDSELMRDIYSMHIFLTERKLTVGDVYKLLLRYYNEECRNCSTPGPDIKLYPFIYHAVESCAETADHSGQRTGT

By IC50 is commonly meant the midpoint of a concentration-inhibition curve. As for `Cc1nc(Cn2c(=O)n(Cc3cnn(C)c3)c(=O)c3cc(S(=O)(=O)NC4(CF)CC4)ccc32)no1` [Example 546, N-[1-(Fluoromethyl)cyclopropyl]-1-[(5-methyl-1,2,4-oxadiazol-3-yl)methyl]-3-[(1-methylpyrazol-4-yl)methyl]-2,4-dioxo-quinazoline-6-sulfonamide], the IC50 in assay [1] (read-out: PARG Biochem IC50) was determined as 0.152 µM; in assay [2] (setting [3]), 0.182 µM.

Turning to `CC(C)CCn1c(=O)n(Cc2cnn(C)c2)c(=O)c2cc(S(=O)(=O)NC3(CF)CC3)ccc21` [Example 613, N-[1-(Fluoromethyl)cyclopropyl]-1-isopentyl-3-[(1-methylpyrazol-4-yl)methyl]-2,4-dioxo-quinazoline-6-sulfonamide], the half-maximal inhibitory concentration (IC50) in assay [1] (read-out: PARG Biochem IC50) turned out to be 0.042 µM; in assay [2] (setting [3]), 0.056 µM.

For `Cc1ncc(Cn2c(=O)c3cc(S(=O)(=O)NC4(C)CC4)ccc3n(C)c2=O)cn1` [Example 433, 1-Methyl-N-(1-methylcyclopropyl)-3-[(2-methylpyrimidin-5-yl)methyl]-2,4-dioxo-quinazoline-6-sulfonamide], the concentration for half-maximal inhibition (IC50) in assay [1] (read-out: PARG Biochem IC50) stood at 3.34 µM; in assay [2] (setting [3]), 1.13 µM.

Consider `Cc1cc(Cn2c(=O)c3cc(S(=O)(=O)NC4(CF)CC4)ccc3n(Cc3cocn3)c2=O)on1` [Example 559, N-[1-(Fluoromethyl)cyclopropyl]-3-[(3-methylisoxazol-5-yl)methyl]-1-(oxazol-4-ylmethyl)-2,4-dioxo-quinazoline-6-sulfonamide], for which the values for the concentration for half-maximal inhibition (IC50) in assay [1] (read-out: PARG Biochem IC50) and in assay [2] (setting [3]) were 0.085 µM and 0.06 µM, respectively.

`Cc1oncc1Cn1c(=O)c2cc(S(=O)(=O)NC3(C)CC3)ccc2n(C)c1=O` [Example 506, 1-Methyl-N-(1-methylcyclopropyl)-3-[(5-methylisoxazol-4-yl)methyl]-2,4-dioxo-quinazoline-6-sulfonamide]: the figures for the 50% inhibitory concentration (IC50) in assay [1] (read-out: PARG Biochem IC50) and in assay [2] (setting [3]) were 0.77 µM and 0.539 µM, respectively.

As for `Cc1nc(C)c(Cn2c(=O)n(C)c(=O)c3cc(S(=O)(=O)NC4CC4)ccc32)s1` [Example 201], the IC50 in assay [1] (setting [4]) stood at 0.19 µM; in assay [2] (setting [5]), 0.224 µM.

For the molecule `Cc1cc(Cn2c(=O)n(Cc3nnc(C)s3)c(=O)c3cc(S(=O)(=O)NC4(C)CC4)ccc32)n(C)n1` [Example 615, 1-[(2,5-Dimethylpyrazol-3-yl)methyl]-N-(1-methylcyclopropyl)-3-[(5-methyl-1,3,4-thiadiazol-2-yl)methyl]-2,4-dioxo-quinazoline-6-sulfonamide], the IC50 worked out at 0.064 µM in assay [1] (read-out: PARG Biochem IC50) and 0.274 µM in assay [2] (setting [3]).

With `Cn1cc(Cn2c(=O)c3cc(S(=O)(=O)NC4(CF)CC4)ccc3n(Cc3nccn3C)c2=O)cn1` [Example 565, N-[1-(Fluoromethyl)cyclopropyl]-1-[(1-methylimidazol-2-yl)methyl]-3-[(1-methylpyrazol-4-yl)methyl]-2,4-dioxo-quinazoline-6-sulfonamide], the IC50 in assay [1] (read-out: PARG Biochem IC50) turned out to be 0.156 µM; in assay [2] (setting [3]), 0.558 µM.

Turning to `Cc1ncc(Cn2c(OCC3CC3)nc3ccc(S(=O)(=O)NC4(C)CC4)cc3c2=O)s1` [Example 157], the IC50 in assay [1] (setting [4]) came out at 0.302 µM; in assay [2] (setting [5]), 0.138 µM.

As to `Cn1cc(Cn2c(=O)c3cc(S(=O)(=O)NC4(C#N)CC4)ccc3n(CC3COC3)c2=O)cn1` [Example 354], the IC50 in assay [1] (setting [4]) amounted to 0.164 µM; in assay [2] (setting [6]) it was 18 µM.

Turning to `Cc1cc(Cn2c(=O)c3cc(S(=O)(=O)NC4(C)CC4)ccc3n(CC3CCN(C)C3)c2=O)on1` (centres unmarked) [Example 361], the IC50 came out at 0.332 µM in assay [1] (setting [4]) and 1.41 µM in assay [2] (setting [5]).

On to `CN(C)CC#Cc1cc(S(=O)(=O)NC2(C)CC2)cc2c(=O)n(Cc3cnn(C)c3)c(=O)[nH]c12` [Example 429, 8-[3-(Dimethylamino)prop-1-ynyl]-N-(1-methylcyclopropyl)-3-[(1-methylpyrazol-4-yl)methyl]-2,4-dioxo-1H-quinazoline-6-sulfonamide], for which the IC50 in assay [1] (read-out: PARG Biochem IC50) is 1.77 µM; in assay [2] (setting [3]), 1.52 µM.

For the molecule `C#CC1(NS(=O)(=O)c2ccc3c(c2)c(=O)n(Cc2cnn(C)c2)c(=O)n3C)CC1` [Example 427, N-(1-Ethynylcyclopropyl)-1-methyl-3-[(1-methylpyrazol-4-yl)methyl]-2,4-dioxo-quinazoline-6-sulfonamide], the IC50 in assay [1] (read-out: PARG Biochem IC50) worked out at 5.4 µM; in assay [2] (setting [3]) it was 1.27 µM.

In the case of `Cc1cc(Cn2c(=O)n(Cc3cnn(C)c3)c(=O)c3cc(S(=O)(=O)NC(C)(C)C)ccc32)n(C)n1` [Example 480], the IC50 in assay [1] (read-out: PARG Biochem IC50) is 0.784 µM; in assay [2] (setting [7]), 1.53 µM.

On to `Cc1ncc(Cn2c(=O)[nH]c3ccc(S(=O)(=O)NC4(C#N)CC4)cc3c2=O)s1` [Example 386, N-(1-Cyanocyclopropyl)-3-[(2-methylthiazol-5-yl)methyl]-2,4-dioxo-1H-quinazoline-6-sulfonamide], for which the values for the IC50 in assay [1] (setting [4]) and in assay [2] (setting [5]) were 0.369 µM and 8.38 µM, respectively.

For the molecule `Cc1cc(Cn2c(=O)c3cc(S(=O)(=O)NC4(C)CC4)ccc3n(C(F)F)c2=O)on1` [Example 605, 1-(Difluoromethyl)-N-(1-methylcyclopropyl)-3-[(3-methylisoxazol-5-yl)methyl]-2,4-dioxo-quinazoline-6-sulfonamide], the IC50 came out at 1.37 µM in assay [1] (read-out: PARG Biochem IC50) and 0.588 µM in assay [2] (setting [3]).

In the case of `Cn1cc(Cn2c(=O)c3cc(S(=O)(=O)NC4(CF)CC4)ccc3n(Cc3cnn(C)c3)c2=O)cn1` [Example 595, N-[1-(Fluoromethyl)cyclopropyl]-1,3-bis[(1-methylpyrazol-4-yl)methyl]-2,4-dioxo-quinazoline-6-sulfonamide], the IC50 in assay [1] (read-out: PARG Biochem IC50) worked out at 0.048 µM; in assay [2] (setting [3]), 0.134 µM.

For `Cc1cc(Cn2c(=O)c3cc(S(=O)(=O)NC4(C)CC4)ccc3n(CC3(C#N)CC3)c2=O)on1` [Example 420, 1-[(1-Cyanocyclopropyl)methyl]-N-(1-methylcyclopropyl)-3-[(3-methylisoxazol-5-yl)methyl]-2,4-dioxo-quinazoline-6-sulfonamide], the IC50 in assay [1] (read-out: PARG Biochem IC50) amounted to 0.14 µM; in assay [2] (setting [3]) it was 0.163 µM.

For `COc1cccc(Cn2c(=O)n(Cc3cnn(C)c3)c(=O)c3cc(S(=O)(=O)NC4(C)CC4)ccc32)c1` [Example 172], the IC50 in assay [1] (setting [4]) turned out to be 0.1 µM; in assay [2] (setting [6]), 0.193 µM.

Turning to `Cn1cc(Cn2c(=O)c3cc(S(=O)(=O)NC4(CF)CC4)ccc3n(CC3CCC3)c2=O)cn1` [Example 461, 1-(Cyclobutylmethyl)-N-[1-(fluoromethyl)cyclopropyl]-3-[(1-methylpyrazol-4-yl)methyl]-2,4-dioxo-quinazoline-6-sulfonamide], the figures for the IC50 in assay [1] (read-out: PARG Biochem IC50) and in assay [2] (setting [3]) were 0.039 µM and 0.03 µM, respectively.

Consider `Cc1nc(Cn2c(=O)n(Cc3cnn(C)c3)c(=O)c3cc(S(=O)(=O)NC4(CF)CC4)ccc32)co1` [Example 580, N-[1-(Fluoromethyl)cyclopropyl]-1-[(2-methyloxazol-4-yl)methyl]-3-[(1-methylpyrazol-4-yl)methyl]-2,4-dioxo-quinazoline-6-sulfonamide], for which the IC50 in assay [1] (read-out: PARG Biochem IC50) stood at 0.069 µM; in assay [2] (setting [3]), 0.046 µM.

Consider `Cn1cc(Cn2c(=O)c3cc(S(=O)(=O)NC4(C)CC4)ccc3n(CCC(C)(C)O)c2=O)cn1` [Example 368], for which the IC50 in assay [1] (setting [4]) amounted to 0.108 µM; in assay [2] (setting [6]), 0.217 µM.

For `C#CCn1c(=O)n(Cc2cnn(C)c2)c(=O)c2cc(S(=O)(=O)NC3(C#N)CC3)ccc21` [Example 355], the IC50 in assay [1] (setting [4]) is 0.122 µM; in assay [2] (setting [5]), 0.953 µM.

In the case of `C#CCn1c(=O)n(Cc2cc(C)no2)c(=O)c2cc(S(=O)(=O)NC3(CF)CC3)ccc21` [Example 532, N-[1-(Fluoromethyl)cyclopropyl]-3-[(3-methylisoxazol-5-yl)methyl]-2,4-dioxo-1-prop-2-ynyl-quinazoline-6-sulfonamide], the values for the IC50 in assay [1] (read-out: PARG Biochem IC50) and in assay [2] (setting [7]) were 0.12 µM and 0.087 µM, respectively.

For the molecule `Cn1cc(Cn2c(=O)c3cc(S(=O)(=O)NC4(CF)CC4)ccc3n(CC3COC3)c2=O)cn1` [Example 445, N-[1-(Fluoromethyl)cyclopropyl]-3-[(1-methylpyrazol-4-yl)methyl]-1-(oxetan-3-ylmethyl)-2,4-dioxo-quinazoline-6-sulfonamide], the IC50 in assay [1] (read-out: PARG Biochem IC50) turned out to be 0.102 µM; in assay [2] (setting [3]), 0.417 µM.

For `Cc1cc(Cn2c(=O)c(Cc3cnn(C)c3)cc3cc(S(=O)(=O)NC4(C)CC4)ccc32)n(C)n1` [Example 492, 1-[(2,5-Dimethylpyrazol-3-yl)methyl]-N-(1-methylcyclopropyl)-3-[(1-methylpyrazol-4-yl)methyl]-2-oxo-quinoline-6-sulfonamide], the IC50 in assay [1] (read-out: PARG Biochem IC50) turned out to be 0.489 µM; in assay [2] (setting [3]) it was 0.741 µM.

On to `Cn1cc(Cn2c(=O)c3cc(S(=O)(=O)NC4(C)CC4)ccc3n(C(F)F)c2=O)cn1` [Example 606, 1-(Difluoromethyl)-N-(1-methylcyclopropyl)-3-[(1-methylpyrazol-4-yl)methyl]-2,4-dioxo-quinazoline-6-sulfonamide], for which the IC50 in assay [1] (read-out: PARG Biochem IC50) was 1.47 µM; in assay [2] (setting [3]), 0.248 µM.

For the molecule `COCCn1c(=O)n(Cc2cc(C)no2)c(=O)c2cc(S(=O)(=O)NC3(C)CC3)ccc21` [Example 274], the IC50 came to 0.237 µM in assay [1] (setting [4]) and 0.166 µM in assay [2] (setting [6]).

Turning to `Cn1cc(Cn2c(=O)c3cc(S(=O)(=O)NC4(CF)CC4)ccc3n(Cc3cccc(F)n3)c2=O)cn1` [Example 540, N-[1-(Fluoromethyl)cyclopropyl]-1-[(6-fluoro-2-pyridyl)methyl]-3-[(1-methylpyrazol-4-yl)methyl]-2,4-dioxo-quinazoline-6-sulfonamide], the IC50 in assay [1] (read-out: PARG Biochem IC50) came out at 0.16 µM; in assay [2] (setting [3]) it was 0.096 µM.

`CN(C)C(=O)Cn1c(=O)n(Cc2cnn(C)c2)c(=O)c2cc(S(=O)(=O)NC3(C)CC3)ccc21` [Example 265]: the IC50 in assay [1] (setting [4]) was 0.418 µM; in assay [2] (setting [5]), 6.48 µM.

On to `Cn1cc(Cn2c(=O)c3cc(S(=O)(=O)NC4(CF)CC4)ccc3n(Cc3cnco3)c2=O)cn1` [Example 564, N-[1-(Fluoromethyl)cyclopropyl]-3-[(1-methylpyrazol-4-yl)methyl]-1-(oxazol-5-ylmethyl)-2,4-dioxo-quinazoline-6-sulfonamide], for which the IC50 in assay [1] (read-out: PARG Biochem IC50) was found to be 0.038 µM; in assay [2] (setting [3]) it was 0.127 µM.

For the origin of these results see patent US10239843B2 (CANCER RESEARCH TECHNOLOGY LIMITED, priority 2014, dated 2019).
